Patent US20120184542A1, “PYRIDO PYRIMIDINES” (priority 2011, published 2012)
Where a name gives a salt, the structure may show the parent alone. Read-outs that look alike come from different tables or passages of the source.

Tests used:
Human DYRK1B = molecular target: T1, Human DYRK1B (Homo sapiens, UniProt Q9Y463); experiment: DYRK1B Kinase TR-FRET (IMAP-Tb) Assay; assay type: biochemical; conditions: TR-FRET (IMAP-Tb), ATP 70 μM, 37° C. 60 minutes
T1 construct: purchased Invitrogen PR8350B (former PV4649)
T1 sequence (Q9Y463 whole entry): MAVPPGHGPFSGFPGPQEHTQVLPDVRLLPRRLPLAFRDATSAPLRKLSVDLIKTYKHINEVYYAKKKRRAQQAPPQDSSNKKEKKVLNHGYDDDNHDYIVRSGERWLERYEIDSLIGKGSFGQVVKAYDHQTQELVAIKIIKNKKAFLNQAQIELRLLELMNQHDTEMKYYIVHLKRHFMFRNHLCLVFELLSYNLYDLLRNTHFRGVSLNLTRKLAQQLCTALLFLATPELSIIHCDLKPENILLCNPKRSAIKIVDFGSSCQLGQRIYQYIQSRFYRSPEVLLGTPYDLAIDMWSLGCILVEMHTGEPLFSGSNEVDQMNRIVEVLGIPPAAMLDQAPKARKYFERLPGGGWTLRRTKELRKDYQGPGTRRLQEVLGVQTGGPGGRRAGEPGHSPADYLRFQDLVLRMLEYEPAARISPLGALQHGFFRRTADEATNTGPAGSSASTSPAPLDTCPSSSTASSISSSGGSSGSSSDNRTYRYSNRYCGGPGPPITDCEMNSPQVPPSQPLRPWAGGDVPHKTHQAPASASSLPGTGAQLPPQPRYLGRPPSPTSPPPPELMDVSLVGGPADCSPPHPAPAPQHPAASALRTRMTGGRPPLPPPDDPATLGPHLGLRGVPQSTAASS

Human DYRK1A = molecular target: T2, Human DYRK1A (Homo sapiens, UniProt Q13627); experiment: DYRK1A Kinase TR-FRET (IMAP-Tb) Assay; assay type: biochemical; conditions: TR-FRET (IMAP-Tb); ATP 70 μM; 37° C. 60 minutes; read-out: Enzyme IC50 (μM) DYRK1A
T2 construct: purchased Invitrogen PV3997
Summary of the method: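 Recombinant human DYRK1A phosphorylated fluorescent substrate peptide (1.0 μM) with ATP in 10 mM HEPES pH 7.0, 50 mM NaCl, 5 mM MgCl2, 1 mM DTT, 1 mM NaVO4, 0.02% BSA for 60 min at 37 °C. Phosphopeptide detected by IMAP terbium TR-FRET; IC50 reported.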

[1] = test system: SW620 human colon cancer cells; experiment: SW620 Cell Viability Assay; assay type: cell-based; conditions: Homo sapiens, SW-620, 96 h, read-out: Cellular EC50 (μM) SW620
Description: Some cells (S—) were allowed to attach for 24 hrs, serum starved for 48 hrs, and then followed with drug treatments Test Compound Solutions were Prepared in Regular Corresponding Media Supplemented with Serum 2. […] Viability Assay: This assay was performed as follows: • Transfer 50 μL of test compound solution per well from the test compound plate onto the cell plate prepared in Step #1. • Mix the plate with treated cells by pipetting up and down three times with 200 μL multi-channel pipette. • Incubate the cells in 5% CO2 incubator @ 37° C. for 4 days. • Run the CellTiter-Glo™ Luminescent Cell Viability Assay.

[2] = read-out: Enzyme IC50 (μM) DYRK1B
[3] = CellTiter-Glo, 4 days incubation

COC(=O)c1ccc(Cl)c(NC(=O)c2cc3cnc(N4CCN(C)CC4)nc3[nH]c2=O)c1 [Example 35, 4-Chloro-3-{[2-(4-methyl-piperazin-1-yl)-7-oxo-7,8-dihydro-pyrido[2,3-d]pyrimidine-6-carbonyl]amino}-benzoic acid methyl ester]
IC50 (Human DYRK1B; [2]): 0.031 µM
IC50 (Human DYRK1A): 0.0046 µM
EC50 [1, 3]: 7.05 µM

COC(=O)c1ccc(Cl)c(NC(=O)c2cc3cnc(NCC(O)CO)nc3[nH]c2=O)c1 (centres unmarked) [Example 38, 4-Chloro-3-{[2-(2,3-dihydroxy-propylamino)-7-oxo-7,8-dihydro-pyrido[2,3-d]pyrimidine-6-carbonyl]amino}-benzoic acid methyl ester]
IC50 (Human DYRK1B; [2]): 0.08 µM
IC50 (Human DYRK1A): 0.0385 µM
EC50 [1, 3]: > 100 µM

COC(=O)c1ccc(Cl)c(NC(=O)c2cc3cnc(N(CCO)CCO)nc3[nH]c2=O)c1 [Example 39, 3-({2-[Bis-(2-hydroxy-ethyl)-amino]-7-oxo-7,8-dihydro-pyrido[2,3-d]pyrimidine-6-carbonyl}-amino)-4-chloro-benzoic acid methyl ester]
IC50 (Human DYRK1B; [2]): 0.0248 µM
IC50 (Human DYRK1A): 0.0128 µM
EC50 [1, 3]: 2.29 µM

COc1ncc2cc(C(=O)Nc3cc(C(=O)NCc4cccc(Cl)c4)ccc3Cl)c(=O)[nH]c2n1 [Example 54, 2-Methoxy-7-oxo-7,8-dihydro-pyrido[2,3-d]pyrimidine-6-carboxylic acid [2-chloro-5-(3-chloro-benzylcarbamoyl)-phenyl]-amide]
IC50 (Human DYRK1B; [2]): 0.0677 µM
IC50 (Human DYRK1A): 0.0215 µM
EC50 [1, 3]: 1.93 µM

COc1ncc2cc(C(=O)Nc3cc(C(=O)NCCc4ccccc4)ccc3Cl)c(=O)[nH]c2n1 [Example 70, 2-Methoxy-7-oxo-7,8-dihydro-pyrido[2,3-d]pyrimidine-6-carboxylic acid (2-chloro-5-phenethylcarbamoyl-phenyl)-amide]
IC50 (Human DYRK1B; [2]): 0.204 µM
IC50 (Human DYRK1A): 0.352 µM
EC50 [1, 3]: 2.3 µM

CSc1ncc2cc(C(=O)Nc3cc(C(=O)NCc4cccc(Cl)c4)ccc3Cl)c(=O)[nH]c2n1 [Example 74, 2-Methylsulfanyl-7-oxo-7,8-dihydro-pyrido[2,3-d]pyrimidine-6-carboxylic acid [2-chloro-5-(3-chloro-benzylcarbamoyl)-phenyl]-amide]
IC50 (Human DYRK1B; [2]): 0.0553 µM
IC50 (Human DYRK1A): 0.0256 µM
EC50 [1, 3]: 1.07 µM

COc1ncc2cc(C(=O)Nc3cc(C(=O)NC(CCN)c4ccccc4)ccc3Cl)c(=O)[nH]c2n1 (centres unmarked) [Example 76, 2-Methoxy-7-oxo-7,8-dihydro-pyrido[2,3-d]pyrimidine-6-carboxylic acid [5-(3-amino-1-phenyl-propylcarbamoyl)-2-chloro-phenyl]-amide]
IC50 (Human DYRK1B; [2]): 0.0128 µM
EC50 [1]: 0.657 µM

CNC(=O)c1ccc(Cl)c(NC(=O)c2cc3cnc(OC)nc3[nH]c2=O)c1 [Example 78, 2-Methoxy-7-oxo-7,8-dihydro-pyrido[2,3-d]pyrimidine-6-carboxylic acid (2-chloro-5-methylcarbamoyl-phenyl)-amide]
IC50 (Human DYRK1B; Enzyme IC50 (μM) DYRK1B): 0.248 µM
EC50 [1]: 2.52 µM

COc1ncc2cc(C(=O)Nc3cc(C(=O)NC(CCN)c4cccc(Cl)c4)ccc3Cl)c(=O)[nH]c2n1 (centres unmarked) [Example 84, 2-Methoxy-7-oxo-7,8-dihydro-pyrido[2,3-d]pyrimidine-6-carboxylic acid {5-[3-amino-1-(3-chloro-phenyl)-propylcarbamoyl]-2-chloro-phenyl}-amide]
IC50 (Human DYRK1B; Enzyme IC50 (μM) DYRK1B): 0.0108 µM
EC50 [1]: 0.235 µM

COc1ncc2cc(C(=O)Nc3cc(C(N)=O)ccc3Cl)c(=O)[nH]c2n1 [Example 88, 2-Methoxy-7-oxo-7,8-dihydro-pyrido[2,3-d]pyrimidine-6-carboxylic acid (5-carbamoyl-2-chloro-phenyl)-amide]
IC50 (Human DYRK1B; Enzyme IC50 (μM) DYRK1B): 0.0749 µM
EC50 [1]: > 10 µM

COc1ncc2cc(C(=O)Nc3cc(C(=O)NC(CCN(C)C)c4cccc(Cl)c4)ccc3Cl)c(=O)[nH]c2n1 (centres unmarked) [Example 96, 2-Methoxy-7-oxo-7,8-dihydro-pyrido[2,3-d]pyrimidine-6-carboxylic acid {2-chloro-5-[1-(3-chloro-phenyl)-3-dimethylamino-propylcarbamoyl]-phenyl}-amide]
IC50 (Human DYRK1B; [2]): 0.233 µM
EC50 [1]: 1.97 µM

CN1CCN(CCCNc2ncc3cc(C(=O)Nc4cc(C(=O)NC(CCN)c5ccccc5)ccc4Cl)c(=O)[nH]c3n2)CC1 (centres unmarked) [Example 121, N-(5-(3-Amino-1-phenylpropylcarbamoyl)-2-chlorophenyl)-2-(3-(4-methylpiperazin-1-yl)propylamino)-7-oxo-7,8-dihydropyrido[2,3-d]pyrimidine-6-carboxamide hydrochloride]
IC50 (Human DYRK1B; Enzyme IC50 (μM) DYRK1B): 0.0137 µM
EC50 [1]: 0.157 µM

CN1CCN(CCNc2ncc3cc(C(=O)Nc4cc(C(=O)NC(CCN)c5ccccc5)ccc4Cl)c(=O)[nH]c3n2)CC1 (centres unmarked) [Example 132, N-(5-(3-Amino-1-phenylpropylcarbamoyl)-2-chlorophenyl)-2-(2-(4-methylpiperazin-1-yl)ethylamino)-7-oxo-7,8-dihydropyrido[2,3-d]pyrimidine-6-carboxamide hydrochloride]
IC50 (Human DYRK1B; Enzyme IC50 (μM) DYRK1B): 0.0306 µM
EC50 [1]: 0.228 µM

COc1ncc2cc(C(=O)Nc3cc(C(=O)N[C@H](CN)c4ccccc4)ccc3Cl)c(=O)[nH]c2n1 [Example 133, (S)—N-(5-(2-Amino-1-phenylethylcarbamoyl)-2-chlorophenyl)-2-methoxy-7-oxo-7,8-dihydropyrido[2,3-d]pyrimidine-6-carboxamide]
IC50 (Human DYRK1B; [2]): 0.0365 µM
EC50 [1]: 0.738 µM

NCCC(NC(=O)c1ccc(Cl)c(NC(=O)c2cc3cnc(N4CCC(N)CC4)nc3[nH]c2=O)c1)c1ccccc1 (centres unmarked) [Example 137, N-(5-(3-Amino-1-phenylpropylcarbamoyl)-2-chlorophenyl)-2-(4-aminopiperidin-1-yl)-7-oxo-7,8-dihydropyrido[2,3-d]pyrimidine-6-carboxamide hydrochloride]
IC50 (Human DYRK1B; Enzyme IC50 (μM) DYRK1B): 0.0258 µM
EC50 [1]: 0.659 µM

COc1ncc2cc(C(=O)Nc3cc(C(=O)NCCCN)ccc3Cl)c(=O)[nH]c2n1 [Example 164, N-(5-(3-Aminopropylcarbamoyl)-2-chlorophenyl)-2-methoxy-7-oxo-7,8-dihydropyrido[2,3-d]pyrimidine-6-carboxamide]
IC50 (Human DYRK1B; [2]): 0.774 µM
EC50 [1]: > 10 µM

COc1ncc2cc(C(=O)Nc3cc(C(=O)NC4(c5ccccc5)CCNCC4)ccc3Cl)c(=O)[nH]c2n1 [Example 166, N-(2-Chloro-5-(4-phenylpiperidin-4-ylcarbamoyl)phenyl)-2-methoxy-7-oxo-7,8-dihydropyrido[2,3-d]pyrimidine-6-carboxamide]
IC50 (Human DYRK1B; [2]): 1.89 µM
EC50 [1, 3]: > 10 µM

COc1ncc2cc(C(=O)Nc3cc(C(=O)N[C@H](CCN)c4ccccc4)ccc3Cl)c(=O)[nH]c2n1 [Example 171, (R)—N-(5-(3-Amino-1-phenylpropylcarbamoyl)-2-chlorophenyl)-2-methoxy-7-oxo-7,8-dihydropyrido[2,3-d]pyrimidine-6-carboxamide]
IC50 (Human DYRK1B; [2]): 0.017 µM
EC50 [1]: 0.446 µM

COc1ncc2cc(C(=O)Nc3cc(C(=O)N[C@@H](CCN)c4ccccc4)ccc3Cl)c(=O)[nH]c2n1 [Example 176, (S)—N-(5-(3-Amino-1-phenylpropylcarbamoyl)-2-chlorophenyl)-2-methoxy-7-oxo-7,8-dihydropyrido[2,3-d]pyrimidine-6-carboxamide]
IC50 (Human DYRK1B; [2]): 1.15 µM
EC50 [1]: > 1 µM
